Laboratory results published in US10213427B2 (Incyte Corporation, priority 2010, dated 2019).

The compounds below were run against FGFR3 enzyme (Millipore) (Homo sapiens (Human), UniProt P22607) (assay: FGFR3 Enzymatic Assay). Details: FRET peptide phosphorylation, 140 μM ATP.
Sequence of FGFR3 enzyme (Millipore) (P22607 23-806): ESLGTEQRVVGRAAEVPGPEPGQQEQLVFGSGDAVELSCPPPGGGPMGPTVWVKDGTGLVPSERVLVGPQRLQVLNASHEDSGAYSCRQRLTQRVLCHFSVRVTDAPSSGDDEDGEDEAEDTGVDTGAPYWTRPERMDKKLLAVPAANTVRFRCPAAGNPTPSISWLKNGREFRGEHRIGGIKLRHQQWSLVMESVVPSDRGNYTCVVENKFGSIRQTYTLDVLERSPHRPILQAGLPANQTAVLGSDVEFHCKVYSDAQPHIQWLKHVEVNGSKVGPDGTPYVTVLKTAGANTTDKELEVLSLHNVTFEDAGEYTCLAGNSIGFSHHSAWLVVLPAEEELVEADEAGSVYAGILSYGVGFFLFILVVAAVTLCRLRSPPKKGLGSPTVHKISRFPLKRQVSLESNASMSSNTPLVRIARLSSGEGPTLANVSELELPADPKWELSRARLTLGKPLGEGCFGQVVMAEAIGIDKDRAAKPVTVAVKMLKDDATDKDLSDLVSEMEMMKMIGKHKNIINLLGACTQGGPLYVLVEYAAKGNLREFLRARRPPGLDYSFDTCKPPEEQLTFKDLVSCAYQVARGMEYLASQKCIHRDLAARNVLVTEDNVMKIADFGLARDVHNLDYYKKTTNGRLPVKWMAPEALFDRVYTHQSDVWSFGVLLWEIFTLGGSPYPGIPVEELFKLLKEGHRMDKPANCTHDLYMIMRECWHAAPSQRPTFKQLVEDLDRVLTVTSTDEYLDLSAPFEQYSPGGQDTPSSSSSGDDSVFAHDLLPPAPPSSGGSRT
Format: biochemical
Procedure: The inhibitor potency of compounds of the invention was measured in an enzyme assay that measures peptide phosphorylation using FRET measurements to detect product formation. Inhibitors were serially diluted in DMSO and a volume of 0.5 μL was transferred to the wells of a 384-well plate. A 10 μL volume of FGFR3 enzyme (Millipore) diluted in assay buffer (50 mM HEPES, 10 mM MgCl2, 1 mM EGTA, 0.01% Tween-20, 5 mM DTT, pH 7.5) was added to the plate and pre-incubated for 5-10 minutes. Appropriate controls (enzyme blank and enzyme with no inhibitor) were included on the plate. […] The plate was incubated at 25° C. for 1 hr. […] The plate was allowed to equilibrate for ˜1 hr before scanning the wells on a PheraStar plate reader.
GraphPad prism3 was used to analyze the data. The IC50 values were derived by fitting the data to the equation for a sigmoidal dose-response with a variable slope. Y=Bottom+(Top−Bottom)/(1+10^((Log IC50−X)*HillSlope)) where X is the logarithm of concentration and Y is the response.
For O=C(NCC(F)(F)F)Nc1cccc(-n2cnc3cc(-c4ccc(C(=O)NCC5CC5)cc4)ccc32)c1 [Example 7, N-(Cyclopropylmethyl)-4-{1-[3-({[(2,2,2-trifluoroethyl)amino]carbonyl}amino)phenyl]-1H-benzimidazol-5-yl}benzamide], the IC50 was less than 10 nM.
N#CCC(=O)N1CCC(n2cc(-c3cnn4c(-c5cccc(NC(=O)NCC(F)(F)F)c5)cnc4c3)cn2)CC1 [Example 44, N-[3-(7-{1-[1-(Cyanoacetyl)piperidin-4-yl]-1H-pyrazol-4-yl}imidazo[1,2-b]pyridazin-3-yl)phenyl]-N′-(2,2,2-trifluoroethyl)urea] showed an IC50 of less than 10 nM.
With N#CCC(=O)N1CCC(n2cc(-c3ccc4c(c3)ncn4-c3cccc(NC(=O)NCC(F)(F)F)c3)cn2)CC1 [Example 28, N-[3-(5-{1-[1-(Cyanoacetyl)piperidin-4-yl]-1H-pyrazol-4-yl}-1H-benzimidazol-1-yl)phenyl]-N′-(2,2,2-trifluoroethyl)urea] the IC50 was less than 10 nM.
Compound O=C(NCC(F)(F)F)Nc1cccc(-n2cnc3cc(-c4cnn(C5CCN(C(=O)C6CCCO6)CC5)c4)ccc32)c1 (stereo not shown) [Example 29, N-[3-(5-{1-[1-(Tetrahydrofuran-2-ylcarbonyl)piperidin-4-yl]-1H-pyrazol-4-yl}-1H-benzimidazol-1-yl)phenyl]-N′-(2,2,2-trifluoroethyl)urea] has an IC50 of less than 10 nM.
O=C(NCC(F)(F)F)Nc1cccc(-n2cnc3cc(-c4cccc(C(=O)NCc5cccnc5)c4)ccc32)c1 [Example 5, N-(Pyridin-3-ylmethyl)-3-{1-[3-({[(2,2,2-trifluoroethyl)amino]carbonyl}amino)phenyl]-1H-benzimidazol-5-yl}benzamide] was tested, and the IC50 was less than 10 nM.
Work on O=C(NCC(F)(F)F)Nc1cccc(-n2cnc3cc(-c4cccc(C(=O)NCC5CCCO5)c4)ccc32)c1 (stereo not shown) [Example 2, N-(Tetrahydrofuran-2-ylmethyl)-3-{1-[3-({[(2,2,2-trifluoroethyl)amino]carbonyl}amino)phenyl]-1H-benzimidazol-5-yl}benzamide] yielded an IC50 of less than 10 nM.
With O=C(NCC(F)(F)F)Nc1cccc(-c2cnc3cc(-c4cnn(C5CCN(C(=O)C6CC(O)C6)CC5)c4)cnn23)c1 (stereo not shown) [Example 47, N-{3-[7-(1-{1-[(3-hydroxycyclobutyl)carbonyl]piperidin-4-yl}-1H-pyrazol-4-yl)imidazo[1,2-b]pyridazin-3-yl]phenyl}-N′-(2,2,2-trifluoroethyl)urea] the IC50 was less than 10 nM.
CC(CC#N)n1cc(-c2cnn3c(-c4cccc(NC(=O)NCC(F)(F)F)c4)cnc3c2)cn1 (stereo not shown) [Example 89, N-(3-{7-[1-(2-Cyano-1-methylethyl)-1H-pyrazol-4-yl]imidazo[1,2-b]pyridazin-3-yl}phenyl)-N′-(2,2,2-trifluoroethyl)urea] was tested, and the IC50 was less than 10 nM.
Cn1cc(C(=O)N2CCC(n3cc(-c4cnn5c(-c6cccc(NC(=O)NCC(F)(F)F)c6)cnc5c4)cn3)CC2)cn1 [Example 32, N-{3-[7-(1-{1-[(1-Methyl-1H-pyrazol-4-yl)carbonyl]piperidin-4-yl}-1H-pyrazol-4-yl)imidazo[1,2-b]pyridazin-3-yl]phenyl}-N′-(2,2,2-trifluoroethyl)urea] gave an IC50 of less than 10 nM.
Compound Cc1oncc1S(=O)(=O)N1CC(CC#N)(n2cc(-c3cnn4c(-c5cccc(NC(=O)NCC(F)(F)F)c5)cnc4c3)cn2)C1 [Example 74, N-{3-[7-(1-{3-(Cyanomethyl)-1-[(5-methylisoxazol-4-yl)sulfonyl]azetidin-3-yl}-1H-pyrazol-4-yl)imidazo[1,2-b]pyridazin-3-yl]phenyl}-N′-(2,2,2-trifluoroethyl)urea] has an IC50 of less than 10 nM.
In the case of CN1CCC(CNC(=O)c2cccc(-c3ccc4c(c3)ncn4-c3cccc(NC(=O)NCC(F)(F)F)c3)c2)CC1 [Example 3, N-[(1-Methylpiperidin-4-yl)methyl]-3-{1-[3-({[(2,2,2-trifluoroethyl)amino]carbonyl}amino)phenyl]-1H-benzimidazol-5-yl}benzamide], the IC50 is reported as less than 10 nM.
For CNC(=O)C(C)c1ccc(-c2ccc3c(c2)ncn3-c2cccc(NC(=O)NCC(F)(F)F)c2)cc1 (stereo not shown) [Example 14, N-Methyl-2-(4-{1-[3-({[(2,2,2-trifluoroethyl)amino]carbonyl}amino)phenyl]-1H-benzimidazol-5-yl}phenyl)propanamide], the IC50 was less than 10 nM.
In the case of O=C(NCC(F)(F)F)Nc1cccc(-c2cnc3cc(-c4cnn(C5CCN(C(=O)C6(O)CC6)CC5)c4)cnn23)c1 [Example 43, N-{3-[7-(1-{1-[(1-hydroxycyclopropyl)carbonyl]piperidin-4-yl}-1H-pyrazol-4-yl)imidazo[1,2-b]pyridazin-3-yl]phenyl}-N′-(2,2,2-trifluoroethyl)urea], the IC50 is reported as less than 10 nM.
Cn1ccc(S(=O)(=O)N2CCC(n3cc(-c4ccc5c(c4)ncn5-c4cccc(NC(=O)NCC(F)(F)F)c4)cn3)CC2)n1 [Example 24, N-{3-[5-(1-{1-[(1-Methyl-1H-pyrazol-3-yl)sulfonyl]piperidin-4-yl}-1H-pyrazol-4-yl)-1H-benzimidazol-1-yl]phenyl}-N′-(2,2,2-trifluoroethyl)urea] gave an IC50 of less than 10 nM.
With CC(C(=O)N(C)C1CCOCC1)n1cc(-c2cnn3c(-c4cccc(NC(=O)NCC(F)(F)F)c4)cnc3c2)cn1 (stereo not shown) [Example 59, N-Methyl-N-(tetrahydro-2H-pyran-4-yl)-2-(4-{3-[3-({[(2,2,2-trifluoroethyl)amino]carbonyl}amino)phenyl]imidazo[1,2-b]pyridazin-7-yl}-1H-pyrazol-1-yl)propanamide] the IC50 was less than 10 nM.
O=C(NCC(F)(F)F)Nc1cccc(-c2cnc3cc(-c4cnn(C5CCN(S(=O)(=O)Cc6ccccc6)CC5)c4)cnn23)c1 [Example 34, N-[3-(7-{1-[1-(Benzylsulfonyl)piperidin-4-yl]-1H-pyrazol-4-yl}imidazo[1,2-b]pyridazin-3-yl)phenyl]-N′-(2,2,2-trifluoroethyl)urea] gave an IC50 of less than 10 nM.
N#CCC(C1CC1)n1cc(-c2cnn3c(-c4cccc(NC(=O)NCC(F)(F)F)c4)cnc3c2)cn1 (stereo not shown) [Example 92, N-(3-{7-[1-(2-Cyano-1-cyclopropylethyl)-1H-pyrazol-4-yl]imidazo[1,2-b]pyridazin-3-yl}phenyl)-N′-(2,2,2-trifluoroethyl)urea] showed an IC50 of less than 10 nM.
With CC(C(=O)NC1CC1)n1cc(-c2cnn3c(-c4cccc(NC(=O)NCC(F)(F)F)c4)cnc3c2)cn1 (stereo not shown) [Example 54, N-Cyclopropyl-2-(4-{3-[3-({[(2,2,2-trifluoroethyl)amino]carbonyl}amino)phenyl]imidazo[1,2-b]pyridazin-7-yl}-1H-pyrazol-1-yl)propanamide] the IC50 was less than 10 nM.
In the case of O=C(NCC(F)(F)F)Nc1cccc(-n2cnc3cc(-c4cccc(C(=O)NCC5CC5)c4)ccc32)c1 [Example 1], the IC50 is reported as less than 10 nM.
For CNC(=O)Nc1cccc(-c2cnc3cc(-c4cccc(C(=O)NCc5ccccc5F)c4)cnn23)c1 [Example 96, N-(2-Fluorobenzyl)-3-[3-(3-{[(methylamino)carbonyl]amino}phenyl)imidazo[1,2-b]pyridazin-7-yl]benzamide], the IC50 was greater than 25 nM.
With CC(C(=O)N[C@@H]1CCOC1)c1ccc(-c2cnn3c(-c4cccc(NC(=O)NCC(F)(F)F)c4)cnc3c2)cc1 (stereo partly drawn) [Example 103, N-[(3R)-Tetrahydrofuran-3-yl]-2-(4-{3-[3-({[(2,2,2-trifluoroethyl)amino]carbonyl}amino)phenyl]imidazo[1,2-b]pyridazin-7-yl}phenyl)propanamide] the IC50 was less than 10 nM.
In the case of O=C(NCC(F)(F)F)Nc1cccc(-n2cnc3cc(-c4ccc(C(=O)NCC5CCCCC5O)cc4)ccc32)c1 (stereo not shown) [Example 9], the IC50 is reported as less than 10 nM.
In the case of O=C(NCC(F)(F)F)Nc1cccc(-c2cnc3cc(-c4cnn(C5CCN(C(=O)C(O)C(F)(F)F)CC5)c4)cnn23)c1 (stereo not shown) [Example 49, N-(2,2,2-trifluoroethyl)-N′-[3-(7-{1-[1-(3,3,3-trifluoro-2-hydroxypropanoyl)piperidin-4-yl]-1H-pyrazol-4-yl}imidazo[1,2-b]pyridazin-3-yl)phenyl]urea], the IC50 is reported as less than 10 nM.
In the case of O=C(NCC(F)(F)F)Nc1cccc(-c2cnc3cc(-c4cnn(C5CCN(C(=O)N6CCCC6)CC5)c4)cnn23)c1 [Example 36, N-[3-(7-{1-[1-(Pyrrolidin-1-ylcarbonyl)piperidin-4-yl]-1H-pyrazol-4-yl}imidazo[1,2-b]pyridazin-3-yl)phenyl]-N′-(2,2,2-trifluoroethyl)urea], the IC50 is reported as less than 10 nM.
With CC(C(=O)N1CCOCC1)n1cc(-c2cnn3c(-c4cccc(NC(=O)NCC(F)(F)F)c4)cnc3c2)cn1 (stereo not shown) [Example 58, N-(3-{7-[1-(1-Methyl-2-morpholin-4-yl-2-oxoethyl)-1H-pyrazol-4-yl]imidazo[1,2-b]pyridazin-3-yl}phenyl)-N′-(2,2,2-trifluoroethyl)urea] the IC50 was less than 10 nM.
Compound O=C(NCC(F)(F)F)Nc1cccc(-c2cnc3cc(-c4cnn(C5CCN(C(=O)CCC6CC6)CC5)c4)cnn23)c1 [Example 46, N-[3-(7-{1-[1-(3-Cyclopropylpropanoyl)piperidin-4-yl]-1H-pyrazol-4-yl}imidazo[1,2-b]pyridazin-3-yl)phenyl]-N′-(2,2,2-trifluoroethyl)urea] has an IC50 of less than 10 nM.
For O=C(NCC(F)(F)F)Nc1cccc(-c2cnc3cc(-c4ccc(N5CCN(C(=O)N6CCCC6)CC5)nc4)cnn23)c1 [Example 53, N-[3-(7-{6-[4-(pyrrolidin-1-ylcarbonyl)piperazin-1-yl]pyridin-3-yl}imidazo[1,2-b]pyridazin-3-yl)phenyl]-N′-(2,2,2-trifluoroethyl)urea], the IC50 was less than 10 nM.
N#CCC(c1ccccc1)n1cc(-c2cnn3c(-c4cccc(NC(=O)NCC(F)(F)F)c4)cnc3c2)cn1 (stereo not shown) [Example 93, N-(3-{7-[1-(2-Cyano-1-phenylethyl)-1H-pyrazol-4-yl]imidazo[1,2-b]pyridazin-3-yl}phenyl)-N′-(2,2,2-trifluoroethyl)urea] gave an IC50 of less than 10 nM.
